Assay results as given in patent US7074807B2, “Compositions and methods for inducing cell death” (Georgetown University, priority 1998, dated 2006).

Assays:
[1] = test system: ERK1; test: ERK1 activity (MBP phosphorylation of ERK1 immunoprecipitates); type: cell-based, human; conditions: 10 mM, 2 h, MDA-MB 231 cells
Procedure: FIGS. 4A, 4B. Tempol stimulates ERK1 activity. […] WCL (1 mg) were immunoprecipitated with agarose-conjugated anti-ERK1 antibody, and in vitro MBP phosphorylation assay was performed as described in experimental procedures. The incorporation of γ^32P into MBP was determined in a filter binding assay 4A. In other independent experiments, the reaction products were electrophoresed on 15% SDS-PAGE and MBP (at ˜18 kDa) was visualized by autoradiography 4B. Cont/Control, cells grown overnight in serum-free medium, and treated with 1% ethanol for 2 h.
ERK and SAPK/JNK Activities—Whole cell lysates prepared as described above were immunoprecipitated (1 mg) with an agarose conjugated anti-ERK1 antibody or an agarose conjugated anti-JNK1 antibody for 2 h at 4° C. with constant agitation. The immune-complexes were washed 3 times in lysis buffer and once in KBB as mentioned earlier. ERK or JNK activity assay was carried out according to manufacturer's procedures (UBI). […] The radioactive filters were washed and counted as described above. […] The radiolabeled GST-cJun fusion protein was detected by autoradiography.

[2] = test system: PCI-04A cells; test: Apoptosis assay (annexin V-FITC/propidium iodide flow cytometry); conditions: 10 mM, PCI-04A
Procedure: (§1) FIGS. (7A1–7A3), (7B1–7B2), (7C1–7C3), (7D1–7D2), (7E1–7E3), (7F1–7F2). […] Cells were grown in serum-free medium overnight in T-25 flasks and treated with tempol (10 mM) or tempo (10 mM) for various times, trypsinized, and then resuspended in 200 ul 1× binding buffer as described in experimental procedures. The cell suspension was double-stained with annexin V-FITC and propidium iodide and analyzed by flow cytometry. Background signal was determined by comparison with double-stained, single-stained, or unstained control cells. (7A1–7A3), (7C1–7C3), and (7E1–7E3) are cytograms showing a relative distribution of viable (V), apoptotic (A), and necrotic (N) cells at 2 h following tempol or tempo treatment of MDA-MB 231 cells (A), PCI-04A cells (C), and PC-3 cells (E). (7B1–7B3), (7D1–7D2), and (7F1–7F2) are time course analyses of MDA-MB 231 cells (B), PCT-04A cells (D), and PC-3 cells (F). 100,000 cells were analyzed at each time point in triplicate (B) or quadruplicate (D and F). Solid bars, 1% ethanol, striped bars, 10 mM tempol, empty bars, 10 mM tempo. […] Data shown are representative from three to four independent experiments. (7B1–7B2), Time course analysis of MDA-MB 231 cells undergoing apoptosis (annexin V-FITC staining) (7B1), or necrosis (propidium iodide staining) (7B2). Values shown are mean±s.d. of triplicate determinations per time point in each treatment category, and representative of three to four independent experiments. […] (7D1–7D2), Time course analysis of PCI-04A cells undergoing apoptosis (annexin V-FITC staining) (7D1), or necrosis (propidium iodide staining) (7D2). Values shown are mean±s.d. of quadruplicate determinations per time point in each treatment category. […] (7F1–7F2), Time course analysis of PC-3 cells undergoing apoptosis (annexin V-FITC staining) (7F1), or necrosis (propidium iodide staining) (7F2). Values shown are mean±s.d. of quadruplicate determinations per time point in each treatment category. Control/C, cells treated with 1% ethanol for 2 h.
Apoptosis Assay—ApoAlert Annexin V apoptosis detection system (Clontech Lab Inc., Palo Alto, Calif.) was used to measure the relative distribution of apoptotic and necrotic cells. Briefly, cells were seeded at a density of 1×10^6 cells per 25 cm^2 tissue culture flask in medium containing 10% FBS overnight, followed by washing twice in serum-free medium. Cells were maintained overnight in serum-free medium and exposed to tempol (10 mM) or tempo (10 mM) for various times. This was followed by rinsing twice with serum-free medium prior to trypsinization, dilution in two volumes of serum-free medium, and centrifugation at 10,000× g. The cell pellet was washed once with PBS and resuspended in 200 ul of 1× binding buffer. The cell suspension was double-labeled with fluorescein isothiocyanate (FITC)-labeled annexin V (10 ul) and propidium iodide (PI) (10 ul) according to the manufacturer's instructions. Unlabeled cells or untreated cells labeled with either FITC-annexin V or PI, or double-labeled served as internal controls for the background signal. The intensity of the dye uptake by cells was detected using FACStar plus Flow Cytometer (Becton Dickerson, Lincoln Park, N.J.), and data were analyzed using Reproman True Facts software (Seattle, Wash.). Viable cells were FITC−/PI−, apoptotic cells were FITC+/PI−, and necrotic cells were FITC+/PI+.

[3] = test system: PC-3 cells; test: Apoptosis assay (annexin V-FITC/propidium iodide flow cytometry), serum-free; conditions: 10 mM, 2 h, PC-3
Procedure: as §1
Apoptosis Assay—ApoAlert Annexin V apoptosis detection system (Clontech Lab Inc., Palo Alto, Calif.) was used to measure the relative distribution of apoptotic and necrotic cells. Briefly, cells were seeded at a density of 1×10^6 cells per 25 cm^2 tissue culture flask in medium containing 10% FBS overnight, followed by washing twice in serum-free medium. Cells were maintained overnight in serum-free medium and exposed to tempol (10 mM) or tempo (10 mM) for various times. […] The intensity of the dye uptake by cells was detected using FACStar plus Flow Cytometer (Becton Dickerson, Lincoln Park, N.J.), and data were analyzed using Reproman True Facts software (Seattle, Wash.). […]

SMILES | increase in the enzymatic activity of ERK1 [1] | apoptotic cells (A) ([2]; 2 h) [%] | viable cells (V) ([2]; 2 h) [%] | apoptosis and necrosis ([2]; 2 h post-treatment) | apoptotic cells (A) [3] [%] | viable cells (V) [3] [%]
CC1(C)CCCC(C)(C)N1[O] [tempo, 2,2,6,6-tetramethylpiperidine-N-oxyl] | no change in ERK1 activity | 48.35 | 18.61 | significant level of apoptosis and necrosis | 2.57 | 10.76
CC1(C)CC(O)CC(C)(C)N1[O] [tempol, 4-hydroxy-tempo, reference compound] | Approximately 3 fold | 5.44 |  |  | 1.20 | 
